Values belong to the molecule of their own block, whether it stands above or below them.
What was measured:
PRMT5/MEP50 complex = PRMT5/MEP50 complex (Homo sapiens, UniProt O14744); test: Inhibition of recombinant N-terminal FLAG-tagged human full-length PRMT5/full length human MEP50 extracted from baculovirus expression system using [3H]-SAM as substrate preincubated for 15 mins followed by substrate addition and measured after 60 mins by multimode plate reader analysis
Z-138 = test: Antiproliferative activity against human Z138 cells measured after 7 days by CellTiter-Glo luminescence cell viability assay; format: functional, cell-based; settings: Z-138, 168 h
[1] = molecular target: Voltage-gated inwardly rectifying potassium channel KCNH2 (Homo sapiens, UniProt Q12809); test: Inhibition of human ERG; format: toxicity
Sequence of Voltage-gated inwardly rectifying potassium channel KCNH2 (Q12809 whole entry): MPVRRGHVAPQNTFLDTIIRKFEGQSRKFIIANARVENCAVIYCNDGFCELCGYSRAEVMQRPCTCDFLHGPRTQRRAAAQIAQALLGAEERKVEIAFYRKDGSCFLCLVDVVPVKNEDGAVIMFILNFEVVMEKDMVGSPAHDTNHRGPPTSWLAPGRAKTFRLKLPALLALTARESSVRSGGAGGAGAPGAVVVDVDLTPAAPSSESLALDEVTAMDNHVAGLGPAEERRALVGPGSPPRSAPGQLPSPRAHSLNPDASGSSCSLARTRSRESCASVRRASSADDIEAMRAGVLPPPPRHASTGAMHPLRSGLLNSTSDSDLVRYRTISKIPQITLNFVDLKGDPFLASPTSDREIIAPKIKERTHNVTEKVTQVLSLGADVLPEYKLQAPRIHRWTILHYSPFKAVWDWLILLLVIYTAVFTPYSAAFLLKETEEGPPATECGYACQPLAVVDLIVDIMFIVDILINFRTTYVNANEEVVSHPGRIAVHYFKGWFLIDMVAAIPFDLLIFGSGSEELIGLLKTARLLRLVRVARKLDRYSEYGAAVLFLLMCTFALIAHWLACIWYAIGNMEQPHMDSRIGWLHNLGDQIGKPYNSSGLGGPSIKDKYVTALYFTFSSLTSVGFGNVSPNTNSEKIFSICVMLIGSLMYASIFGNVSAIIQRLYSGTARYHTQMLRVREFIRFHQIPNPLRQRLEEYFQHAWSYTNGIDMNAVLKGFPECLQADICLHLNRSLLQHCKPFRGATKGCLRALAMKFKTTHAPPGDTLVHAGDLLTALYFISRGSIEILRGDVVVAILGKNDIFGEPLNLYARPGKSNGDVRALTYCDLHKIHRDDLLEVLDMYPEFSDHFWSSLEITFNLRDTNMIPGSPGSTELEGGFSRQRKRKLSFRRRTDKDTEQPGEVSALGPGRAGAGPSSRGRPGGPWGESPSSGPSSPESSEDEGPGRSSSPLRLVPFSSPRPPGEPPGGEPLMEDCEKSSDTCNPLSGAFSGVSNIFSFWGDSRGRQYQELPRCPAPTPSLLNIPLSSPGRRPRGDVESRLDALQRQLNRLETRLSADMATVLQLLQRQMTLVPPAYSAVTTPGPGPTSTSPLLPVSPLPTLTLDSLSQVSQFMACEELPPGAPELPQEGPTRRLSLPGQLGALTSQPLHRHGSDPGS

[2] = Tmax in Sprague-Dawley rat at 10 mg/kg, po by LC-MS/MS analysis; format: ADME, organism-based; settings: in vivo
[3] = AUC (0 to t) in Sprague-Dawley rat at 10 mg/kg, po by LC-MS/MS analysis; format: ADME, organism-based; settings: in vivo; for AUC(0-t): Sprague-Dawley
[4] = Clearance in Sprague-Dawley rat at 2 mg/kg, iv by LC-MS/MS analysis; format: ADME, organism-based; settings: in vivo
[5] = Half-life in Sprague-Dawley rat at 10 mg/kg, po by LC-MS/MS analysis; format: ADME, organism-based; settings: in vivo; for half-life: Sprague-Dawley
[6] = Volume of distribution in Sprague-Dawley rat at 2 mg/kg, iv by LC-MS/MS analysis; format: ADME, organism-based; settings: in vivo
[7] = Cmax in Sprague-Dawley rat at 2 mg/kg, iv by LC-MS/MS analysis; format: ADME, organism-based; settings: in vivo
[8] = Half-life in Sprague-Dawley rat at 2 mg/kg, iv by LC-MS/MS analysis; format: ADME, organism-based; settings: in vivo
[9] = MRT (0 to t) in Sprague-Dawley rat at 10 mg/kg, po by LC-MS/MS analysis; format: ADME, organism-based; settings: in vivo
[10] = AUC (0 to t) in Sprague-Dawley rat at 2 mg/kg, iv by LC-MS/MS analysis; format: ADME, organism-based; settings: in vivo
[11] = MRT (0 to t) in Sprague-Dawley rat at 2 mg/kg, iv by LC-MS/MS analysis; format: ADME, organism-based; settings: in vivo
[12] = Cmax in Sprague-Dawley rat at 10 mg/kg, po by LC-MS/MS analysis; format: ADME, organism-based; settings: in vivo
[13] = Oral bioavailability in Sprague-Dawley rat at 10 mg/kg by LC-MS/MS analysis; format: ADME, organism-based; settings: in vivo
[14] = molecular target: Protein arginine N-methyltransferase 8 (Homo sapiens, UniProt Q9NR22); test: Inhibition of PRMT8 (unknown origin)
Sequence of Protein arginine N-methyltransferase 8 (Q9NR22 whole entry): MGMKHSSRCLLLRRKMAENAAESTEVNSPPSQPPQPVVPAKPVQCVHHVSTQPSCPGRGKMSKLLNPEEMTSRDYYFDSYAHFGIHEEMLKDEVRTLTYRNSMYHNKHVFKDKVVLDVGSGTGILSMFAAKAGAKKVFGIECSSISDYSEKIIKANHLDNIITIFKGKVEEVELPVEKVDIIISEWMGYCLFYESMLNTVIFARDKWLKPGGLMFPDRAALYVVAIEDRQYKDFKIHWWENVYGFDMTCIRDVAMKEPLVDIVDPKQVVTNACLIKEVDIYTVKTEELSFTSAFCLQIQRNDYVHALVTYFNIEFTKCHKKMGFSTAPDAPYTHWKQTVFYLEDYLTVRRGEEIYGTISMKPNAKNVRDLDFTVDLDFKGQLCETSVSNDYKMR

[15] = molecular target: T1, Protein arginine N-methyltransferase 7 (Homo sapiens, UniProt Q9NVM4); test: Inhibition of PRMT7 (unknown origin)
T1 sequence (Q9NVM4 whole entry): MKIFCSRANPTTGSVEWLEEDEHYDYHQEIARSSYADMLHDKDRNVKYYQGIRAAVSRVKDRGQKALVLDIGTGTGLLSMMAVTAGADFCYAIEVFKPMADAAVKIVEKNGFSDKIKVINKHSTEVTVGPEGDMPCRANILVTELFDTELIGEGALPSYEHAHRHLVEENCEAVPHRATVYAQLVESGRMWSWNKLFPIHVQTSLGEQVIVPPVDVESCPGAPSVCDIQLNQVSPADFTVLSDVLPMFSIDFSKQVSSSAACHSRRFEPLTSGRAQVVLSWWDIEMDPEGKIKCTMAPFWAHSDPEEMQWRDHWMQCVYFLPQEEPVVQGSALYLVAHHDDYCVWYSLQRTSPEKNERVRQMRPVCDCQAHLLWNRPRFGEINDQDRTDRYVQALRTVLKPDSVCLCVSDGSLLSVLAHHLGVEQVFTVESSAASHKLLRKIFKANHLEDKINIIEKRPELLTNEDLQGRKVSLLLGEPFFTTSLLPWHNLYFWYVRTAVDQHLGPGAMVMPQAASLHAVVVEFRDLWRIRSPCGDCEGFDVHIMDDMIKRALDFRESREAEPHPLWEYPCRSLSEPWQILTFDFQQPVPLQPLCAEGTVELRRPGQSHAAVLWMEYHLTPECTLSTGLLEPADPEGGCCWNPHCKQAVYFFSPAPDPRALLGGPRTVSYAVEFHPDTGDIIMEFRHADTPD

[16] = molecular target: T2, Histone-arginine methyltransferase CARM1 (Homo sapiens, UniProt Q86X55); test: Inhibition of PRMT4 (unknown origin)
T2 sequence (Q86X55 whole entry): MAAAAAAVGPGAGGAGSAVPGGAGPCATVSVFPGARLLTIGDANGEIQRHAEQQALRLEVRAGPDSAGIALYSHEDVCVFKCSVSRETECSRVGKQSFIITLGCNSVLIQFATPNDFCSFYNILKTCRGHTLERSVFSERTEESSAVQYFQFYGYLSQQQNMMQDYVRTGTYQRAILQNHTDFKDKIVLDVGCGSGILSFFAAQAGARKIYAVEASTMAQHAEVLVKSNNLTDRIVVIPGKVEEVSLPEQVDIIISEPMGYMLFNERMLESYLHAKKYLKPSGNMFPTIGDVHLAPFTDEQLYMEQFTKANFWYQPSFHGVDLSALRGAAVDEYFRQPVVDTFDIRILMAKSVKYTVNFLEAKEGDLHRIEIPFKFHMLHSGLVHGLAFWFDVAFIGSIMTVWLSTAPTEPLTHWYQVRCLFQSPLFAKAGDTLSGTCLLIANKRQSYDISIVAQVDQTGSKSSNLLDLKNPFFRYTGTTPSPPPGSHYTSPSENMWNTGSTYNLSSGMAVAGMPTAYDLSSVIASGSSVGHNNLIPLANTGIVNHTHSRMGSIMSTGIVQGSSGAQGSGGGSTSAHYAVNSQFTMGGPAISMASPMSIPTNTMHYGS

[17] = molecular target: Protein arginine N-methyltransferase 3 (Homo sapiens, UniProt O60678); test: Inhibition of PRMT3 (unknown origin)
Sequence of Protein arginine N-methyltransferase 3 (O60678 whole entry): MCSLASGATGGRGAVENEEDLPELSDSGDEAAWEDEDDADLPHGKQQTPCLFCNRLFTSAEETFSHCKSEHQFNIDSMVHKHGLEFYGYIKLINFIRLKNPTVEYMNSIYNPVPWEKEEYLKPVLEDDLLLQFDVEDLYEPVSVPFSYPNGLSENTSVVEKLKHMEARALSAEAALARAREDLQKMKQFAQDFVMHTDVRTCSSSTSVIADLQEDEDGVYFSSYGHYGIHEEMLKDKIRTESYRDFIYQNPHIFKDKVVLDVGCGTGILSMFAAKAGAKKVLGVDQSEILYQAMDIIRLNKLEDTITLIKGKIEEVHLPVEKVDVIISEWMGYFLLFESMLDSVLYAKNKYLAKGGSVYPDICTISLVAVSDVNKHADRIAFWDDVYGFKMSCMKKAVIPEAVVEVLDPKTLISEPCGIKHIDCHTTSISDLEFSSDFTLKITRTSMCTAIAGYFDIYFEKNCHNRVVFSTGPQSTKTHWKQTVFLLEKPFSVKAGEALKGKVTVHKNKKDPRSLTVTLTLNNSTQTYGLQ

[18] = molecular target: Protein arginine N-methyltransferase 6 (Homo sapiens, UniProt Q96LA8); test: Inhibition of PRMT6 (unknown origin)
Sequence of Protein arginine N-methyltransferase 6 (Q96LA8 whole entry): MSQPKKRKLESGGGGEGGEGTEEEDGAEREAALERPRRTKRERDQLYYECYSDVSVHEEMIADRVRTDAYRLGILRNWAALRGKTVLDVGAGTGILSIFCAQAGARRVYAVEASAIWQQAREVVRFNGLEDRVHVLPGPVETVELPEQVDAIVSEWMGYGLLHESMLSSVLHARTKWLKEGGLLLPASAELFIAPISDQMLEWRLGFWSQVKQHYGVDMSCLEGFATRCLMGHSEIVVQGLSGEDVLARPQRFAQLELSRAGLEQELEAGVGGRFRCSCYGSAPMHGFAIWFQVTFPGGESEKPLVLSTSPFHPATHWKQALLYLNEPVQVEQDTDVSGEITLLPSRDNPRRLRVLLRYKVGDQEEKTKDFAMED

Sequence of PRMT5/MEP50 complex (O14744 whole entry): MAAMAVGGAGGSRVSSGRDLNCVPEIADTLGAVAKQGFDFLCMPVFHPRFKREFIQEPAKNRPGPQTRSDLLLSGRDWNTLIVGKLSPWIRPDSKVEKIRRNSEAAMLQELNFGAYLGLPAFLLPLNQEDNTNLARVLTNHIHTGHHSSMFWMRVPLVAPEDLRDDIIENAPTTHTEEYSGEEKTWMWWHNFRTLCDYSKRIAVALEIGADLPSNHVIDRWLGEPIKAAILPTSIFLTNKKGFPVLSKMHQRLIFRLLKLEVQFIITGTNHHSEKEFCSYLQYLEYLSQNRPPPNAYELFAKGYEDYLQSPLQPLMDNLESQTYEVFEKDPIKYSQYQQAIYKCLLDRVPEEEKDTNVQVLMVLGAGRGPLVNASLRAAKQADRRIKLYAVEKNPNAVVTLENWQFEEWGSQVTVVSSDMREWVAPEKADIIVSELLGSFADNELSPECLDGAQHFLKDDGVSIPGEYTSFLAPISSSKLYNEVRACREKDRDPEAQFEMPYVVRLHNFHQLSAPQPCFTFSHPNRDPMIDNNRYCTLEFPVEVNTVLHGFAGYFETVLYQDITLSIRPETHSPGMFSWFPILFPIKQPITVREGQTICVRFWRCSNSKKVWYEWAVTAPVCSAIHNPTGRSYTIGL
Sequence of PRMT5/MEP50 complex (Q9BQA1 whole entry, further chain): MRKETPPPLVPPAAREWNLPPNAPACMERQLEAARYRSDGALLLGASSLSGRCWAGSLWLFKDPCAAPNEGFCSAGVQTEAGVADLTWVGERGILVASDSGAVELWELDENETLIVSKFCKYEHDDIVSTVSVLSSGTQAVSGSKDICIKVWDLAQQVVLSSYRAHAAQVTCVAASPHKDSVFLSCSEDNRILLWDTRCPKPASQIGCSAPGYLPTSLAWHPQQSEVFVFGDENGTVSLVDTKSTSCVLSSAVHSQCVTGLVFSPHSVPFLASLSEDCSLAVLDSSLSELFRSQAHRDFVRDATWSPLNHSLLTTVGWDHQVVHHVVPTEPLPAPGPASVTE

SMILES: CC(=O)N1CCC(Nc2ccc3c(n2)C(=O)N(C[C@H](O)CN2CCc4ccccc4C2)CC32CC2)CC1
- IC50 (PRMT5/MEP50 complex): 86.9 nM
- IC50 (Z-138): 279 nM

SMILES: CC(=O)N1CCC(C(=O)N2CCC3(CC2)C(=O)N(C[C@H](O)CN2CCc4ccccc4C2)c2ccccc23)CC1
- IC50 (PRMT5/MEP50 complex): 3060 nM

SMILES: CC(=O)N1CCC(Nc2ccc3c(c2)CC(=O)N3C[C@H](O)CN2CCc3ccccc3C2)CC1
- IC50 (PRMT5/MEP50 complex): > 10000 nM

SMILES: CC(=O)N1CCC(Nc2ccc3c(c2)N(C[C@H](O)CN2CCc4ccccc4C2)C(=O)C3)CC1
- IC50 (PRMT5/MEP50 complex): > 10000 nM

SMILES: CC(=O)N1CCC(Nc2ccc3c(c2)C(=O)N(C[C@H](O)CN2CCc4ccccc4C2)CC32CCCC2)CC1
- IC50 [1]: 350 nM
- Tmax ([2]; po, 10 mg/kg): 6 min
- AUCt ([3]; po, 10 mg/kg): 794.2 ng·h/mL
- clearance [4]: 25 mL/min/kg
- IC50 (PRMT5/MEP50 complex): 22.6 nM
- IC50 (Z-138): 10.3 nM
- t1/2 ([5]; po, 10 mg/kg): 18 min
- Vd [6]: 2.8 L/kg
- Cmax [7]: 943 ng/mL
- half-life [8]: 78 min
- MRT last [9]: 6 min
- AUC(0-t) [10]: 656 ng·h/mL
- MRT last [11]: 60 min
- Cmax ([12]; po, 10 mg/kg): 149.5 ng/mL
- bioavailability [13]: 24.2%

SMILES: CC(=O)N1CCC(Nc2ccc3c(c2)C(=O)N(C[C@H](O)CN2CCc4ccccc4C2)CC3)CC1
- IC50 (PRMT5/MEP50 complex): 37.5 nM
- IC50 (Z-138): 14.3 nM

SMILES: CC(=O)N1CCC(Nc2ccc3c(c2)C(=O)N(C[C@H](O)CN2CCc4ccccc4C2)CC32CCOC2)CC1 (some centres undefined)
- IC50 (PRMT5/MEP50 complex): 116 nM

SMILES: CC(=O)N1CCC(Nc2cc3c(cn2)C2(CC2)CN(C[C@H](O)CN2CCc4ccccc4C2)C3=O)CC1
- Tmax ([2]; Sprague-Dawley, read-out: Tmax): 24 min
- AUC(0-t) [3]: 356 ng·h/mL
- clearance [4]: 38.3 mL/min/kg
- IC50 (Z-138): 3.07 nM
- half-life [5]: 24 min
- Vd [6]: 3 L/kg
- Cmax [7]: 678 ng/mL
- half-life [8]: 24 min
- MRT last [9]: 12 min
- AUC(0-t) [10]: 435 ng·h/mL
- MRT last [11]: 54 min
- Cmax ([12]; Sprague-Dawley, read-out: Cmax): 145 ng/mL
- bioavailability [13]: 16.4%

SMILES: O=C1c2cc(NC3CCN(C(=O)C4CC4)CC3)ccc2C2(CCCC2)CN1C[C@H](O)CN1CCc2ccccc2C1
- IC50 (PRMT5/MEP50 complex): 45.5 nM
- IC50 (Z-138): 20.5 nM

SMILES: C[S+](CC[C@H](N)C(=O)[O-])C[C@H]1O[C@@H](n2cnc3c(N)ncnc32)[C@H](O)[C@@H]1O (some centres undefined) [ADEMETIONINE]
- IC50 [14]: 759 nM
- IC50 (PRMT5/MEP50 complex): 793 nM
- IC50 [15]: 491 nM
- IC50 [16]: 42 nM
- IC50 [17]: 5170 nM
- IC50 [18]: 1260 nM

SMILES: CC(=O)N1CCC(C(=O)N2CCC3(CC2)CCN(C[C@H](O)CN2CCc4ccccc4C2)C3=O)CC1
- IC50 (PRMT5/MEP50 complex): > 10000 nM

Continued, in another order:

- IC50 (PRMT5/MEP50 complex): 16.7 nM
SMILES: O=C(Nc1ccc2c(c1)C(=O)N(C[C@H](O)CN1CCc3ccccc3C1)CC21CC1)C1CCOCC1
- IC50 (Z-138): 282 nM

- IC50 (PRMT5/MEP50 complex): 16.1 nM
SMILES: Cn1cc(C(=O)Nc2ccc3c(c2)C(=O)N(C[C@H](O)CN2CCc4ccccc4C2)CC32CCC2)cn1
- IC50 (Z-138): 318 nM

- Tmax ([2]; Sprague-Dawley, read-out: Tmax): 18 min
- AUC(0-t) [3]: 1600 ng·h/mL
- clearance [4]: 25 mL/min/kg
- IC50 (PRMT5/MEP50 complex): 26.4 nM
- half-life [5]: 210 min
- Vd [6]: 1.6 L/kg
- Cmax [7]: 1770 ng/mL
- half-life [8]: 48 min
- MRT last [9]: 132 min
- AUC(0-t) [10]: 1370 ng·h/mL
- MRT last [11]: 48 min
- Cmax ([12]; Sprague-Dawley, read-out: Cmax): 840 ng/mL
- bioavailability [13]: 23.4%
SMILES: CC(=O)N1CCC(Nc2ccc3c(c2)C(=O)N(C[C@H](O)CN2CCc4ccccc4C2)CC32CCC2)CC1
- IC50 [1]: 460 nM
- IC50 (Z-138): 3.89 nM

- IC50 (PRMT5/MEP50 complex): 9.01 nM
SMILES: O=C1c2cc(NC3CCNCC3)ccc2C2(CC2)CN1C[C@H](O)CN1CCc2ccccc2C1
- IC50 (Z-138): 588 nM

- Tmax ([2]; Sprague-Dawley, read-out: Tmax): 18 min
- AUC(0-t) [3]: 1460 ng·h/mL
- clearance [4]: 71.7 mL/min/kg
- IC50 (PRMT5/MEP50 complex): 18.3 nM
- half-life [5]: 54 min
- Vd [6]: 2.6 L/kg
- Cmax [7]: 1560 ng/mL
- half-life [8]: 24 min
- MRT last [9]: 60 min
- AUC(0-t) [10]: 464 ng·h/mL
- MRT last [11]: 18 min
- Cmax ([12]; Sprague-Dawley, read-out: Cmax): 1150 ng/mL
- bioavailability [13]: 63.1%
SMILES: CC(=O)N1CCC(Nc2ccc3c(c2)C(=O)N(C[C@H](O)CN2CCc4ccccc4C2)CC32CC2)CC1
- IC50 (Z-138): 4.33 nM

- IC50 (PRMT5/MEP50 complex): 10.6 nM
SMILES: O=C(Nc1ccc2c(c1)C(=O)N(C[C@H](O)CN1CCc3ccccc3C1)CC21CC1)c1ccccc1
- IC50 (Z-138): 400 nM

- IC50 (PRMT5/MEP50 complex): 8.61 nM
SMILES: CC(=O)N1CCC(C(=O)Nc2ccc3c(c2)C(=O)N(C[C@H](O)CN2CCc4ccccc4C2)CC32CC2)CC1
- IC50 (Z-138): 103 nM

- IC50 (PRMT5/MEP50 complex): 9.89 nM
SMILES: Cn1cc(C(=O)Nc2ccc3c(c2)C(=O)N(C[C@H](O)CN2CCc4ccccc4C2)CC32CC2)cn1
- IC50 (Z-138): 292 nM

- IC50 (PRMT5/MEP50 complex): 249 nM
SMILES: O=C1c2cc(NS(=O)(=O)c3ccccc3)ccc2C2(CC2)CN1C[C@H](O)CN1CCc2ccccc2C1

- IC50 (PRMT5/MEP50 complex): 3.95 nM
SMILES: CC(=O)N1CCC(C(=O)Nc2ccc3c(c2)C(=O)N(C[C@H](O)CN2CCc4ccccc4C2)CC32CCC2)CC1
- IC50 (Z-138): 91.8 nM

— ChEMBL document CHEMBL6087464, “Design, Synthesis, and Biological Evaluation of 3,4-Dihydroisoquinolin-1(2H)-one Derivatives as Protein Arginine Methyltransferase 5 Inhibitors for the Treatment of Non-Hodgkin's Lymphoma” (J Med Chem, 2025)
